As usually defined, the melting point is the temperature, or range, at which the solid turns liquid.

Data set [1] addresses T1, hPPARα (LBD) (Homo sapiens, UniProt Q07869).
T1 construct: A receptor expression plasmid (pSG5-GAL4-hPPARα or γ or δ (LBD)); GAL4 (fusion partner); expressed in transfected cells; host or cells: CV-1 cells (ATCC)
T1 sequence (Q07869 239-466 limits assumed): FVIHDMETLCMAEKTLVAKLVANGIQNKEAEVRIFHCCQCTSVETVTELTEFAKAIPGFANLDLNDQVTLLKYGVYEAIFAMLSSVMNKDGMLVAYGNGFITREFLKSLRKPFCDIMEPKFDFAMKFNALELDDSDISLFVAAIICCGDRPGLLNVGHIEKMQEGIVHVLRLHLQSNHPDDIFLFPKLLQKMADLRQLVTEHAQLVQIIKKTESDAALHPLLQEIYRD
Briefly: PPAR activating effect, GAL4-hPPARα LBD luciferase reporter transfection in CV-1 cells. The format is cell-based. The note with it: 100% = GW-590735 10^-6 M.

Data set [2] deals with T2, hPPARγ (LBD) (Homo sapiens, UniProt P37231).
T2 construct: A receptor expression plasmid (pSG5-GAL4-hPPARα or γ or δ (LBD)); GAL4 (fusion partner); expressed in transfected cells; host or cells: CV-1 cells (ATCC)
T2 sequence (P37231 238-503 limits assumed): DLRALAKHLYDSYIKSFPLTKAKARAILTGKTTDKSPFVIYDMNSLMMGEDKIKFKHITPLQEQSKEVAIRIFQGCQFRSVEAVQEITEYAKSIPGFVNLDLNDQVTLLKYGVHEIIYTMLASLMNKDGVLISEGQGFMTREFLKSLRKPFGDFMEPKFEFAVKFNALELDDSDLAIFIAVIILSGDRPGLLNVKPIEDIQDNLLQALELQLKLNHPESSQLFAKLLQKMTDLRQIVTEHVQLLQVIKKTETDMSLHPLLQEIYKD
Briefly: PPAR activating effect, GAL4-hPPARγ LBD luciferase reporter transfection in CV-1 cells. The format is cell-based. The note with it: 100% = Rosiglitazone 10^-5 M. (In general: In a reporter assay the amount or activity of a reporter protein is the signal.)

For data set [3], the target named is T3, hPPARδ (LBD) (Homo sapiens, UniProt Q03181).
T3 construct: A receptor expression plasmid (pSG5-GAL4-hPPARα or γ or δ (LBD)); GAL4 (fusion partner); expressed in transfected cells; host or cells: CV-1 cells (ATCC)
T3 sequence (Q03181 211-439 limits assumed): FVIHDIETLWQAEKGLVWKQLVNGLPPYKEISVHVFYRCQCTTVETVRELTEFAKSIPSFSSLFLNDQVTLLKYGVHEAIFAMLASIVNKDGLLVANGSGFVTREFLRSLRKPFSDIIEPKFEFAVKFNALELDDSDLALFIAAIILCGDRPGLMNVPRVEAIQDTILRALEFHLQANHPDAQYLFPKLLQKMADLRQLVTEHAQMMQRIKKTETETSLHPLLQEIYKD
The data set is described as follows: PPAR activating effect, GAL4-hPPARδ LBD luciferase reporter transfection in CV-1 cells. More on the design: activation: dose or concentration left out as unconfirmed. The following applies: CV-1, 40 h; read-out: PPAR activity δ (relative value to control compound). The format is cell-based.

Where [4] appears, read: Table 26, test compound 10^-7 M.
Where [5] appears, read: Table 24, CV-1 cells, approx. 40 h.

With `CC(C)c1c(CCc2noc3cc(N(C)CC(=O)O)ccc23)sc2cc(C(F)(F)F)ccc12` [Example 28, N-[3-[2-[3-Isopropyl-6-(trifluoromethyl)benzothiophen-2-yl]ethyl]benzisoxazol-6-yl]-N-methylglycine], the melting point was 153 to 156 °C. In data set [1] (setting [4]), the “PPAR activity α (relative value to control compound)” value is listed as “Inactive”. The “PPAR activity γ (relative value to control compound)” value in data set [2] (setting [4]) was “Inactive”. Moreover, the activation at 0.1 µM in data set [3] came out at 81.3%.

Molecule `CCCc1c(CCc2noc3cc(N(C)CC(=O)O)c(C)cc23)sc2cc(C(F)(F)F)ccc12` [Example 24, N-[5-Methyl-3-[2-[3-propyl-6-(trifluoromethyl)benzothiophen-2-yl]ethyl]benzisoxazol-6-yl]-N-methylglycine] registered a melting point of 147 to 149 °C. Also, the activation at 0.1 µM in data set [1] (CV-1, 40 h, Table 26, test compound 10^-7 M, read-out: PPAR activity α (relative value to control compound)) amounted to 16.4%. In addition, the activation at 0.1 µM in data set [2] (CV-1, 40 h, Table 26, test compound 10^-7 M, read-out: PPAR activity γ (relative value to control compound)) worked out at 5.8%. Also, the activation at 0.1 µM in data set [3] was 77.2%.

For the molecule `CCCc1c(CCc2noc3cc(OCC(=O)O)c(C)cc23)sc2cc(C(F)(F)F)ccc12` [Example 25, [5-Methyl-3-[2-[3-propyl-6-(trifluoromethyl)benzothiophen-2-yl]ethyl]benzisoxazol-6-yloxy]acetic acid], the “PPAR activity α (relative value to control compound)” value in data set [1] (setting [4]) is given as “Inactive”. The “PPAR activity γ (relative value to control compound)” value in data set [2] (setting [4]) is on record as “Inactive”. Further, the activation at 0.1 µM in data set [3] was determined as 87.4%.

As to `Cc1cc(C(CCc2sc3cc(C(F)(F)F)ccc3c2C(C)C)=NO)ccc1OCC(=O)O` [Example 16, 4-[1-Hydroxyimino-3-[3-isopropyl-6-(trifluoromethyl)-benzothiophen-2-yl]propyl]-2-methyl-phenoxyacetic acid], in data set [1] (setting [5]), the “PPAR activity α (relative value to control compound)” value is “Inactive”. In data set [2] (setting [5]), the “PPAR activity γ (relative value to control compound)” value was “Inactive”. Moreover, the activation in data set [3] amounted to 51.7%.

Turning to `CCc1c(CCC(=O)c2ccc(CCC(=O)O)c(C)c2)sc2cc(C(F)(F)F)ccc12` [Example 8, 3-[4-[3-[3-Ethyl-6-(trifluoromethyl)benzothiophen-2-yl]propionyl]-2-methylphenyl]propionic acid], the “PPAR activity α (relative value to control compound)” value in data set [1] (setting [5]) is listed as “Inactive”. Besides, the “PPAR activity γ (relative value to control compound)” value in data set [2] (setting [5]) is on record as “Inactive”. In data set [3], the activation stood at 81%.

As for `Cc1cc(C(CCc2sc3cc(C(F)(F)F)ccc3c2C(C)C)=NO)ccc1CCC(=O)O` [Example 13, 3-[4-[1-Hydroxyimino-3-[3-isopropyl-6-(trifluoromethyl)-benzothiophen-2-yl]propyl]-2-methylphenyl]propionic acid], the “PPAR activity α (relative value to control compound)” value in data set [1] (setting [5]) is listed as “Inactive”. The “PPAR activity γ (relative value to control compound)” value in data set [2] (setting [5]) was “Inactive”. Moreover, the activation in data set [3] worked out at 90.4%.

Values taken from patent US8648208B2, “Activating agent for peroxisome proliferator activated receptor” (Nippon Chemiphar Co. Ltd., priority 2008, dated 2014).
